Test results taken from patent US8466110B2, “Use of an agent that restores tissue perfusion and oxygenation” (Duke University, priority 2005, dated 2013).
Entries after “also recorded” stand apart in the source; their conditions may differ.

How the values were obtained:
[1] = tested on: mammary adenocarcinoma R3230AC tumors; experiment: Tumor perfusion by Laser Doppler flowmetry; assay type: in vivo, rat; parameters: key to TUMOR perfusion: 0, unchanged; ↓, decreased; ↑, increased; details: for tumor blood flow (perfusion), flank tumors: normoxic rats
[2] = tested on: Fischer 344 rats; experiment: Blood gas and hemoglobin saturation measurements; assay type: in vivo, rat; details: breathing 100% O2
Method: Blood gases and Hb oxygen saturation were measured using a 1640 oximeter coupled to a 482 co-oximeter (Instrumentation Laboratories, Lexington, Mass., United States of America) from 0.5 ml samples of femoral arterial and venous blood. For tumor microvessels in window chambers, Hb saturation was calculated from transmission optical measurements of vascular absorbance using a hyperspectral imaging technique described in Sorg et al., 2005. A liquid crystal tunable filter (CRI, Inc., Woburn, Mass., United States of America) placed in front of a CCD camera (DVC Company, Austin, Tex., United States of America) was used for band-limited imaging.

[3] = tested on: Fischer 344 rats; experiment: Mean arterial pressure and heart rate; assay type: in vivo, rat; parameters: key to SYSTEMIC MAP / SYSTEMIC HR: 0, unchanged; ↓, decreased; ↑, increased
Method: Mean arterial pressure (MAP) and heart rate (HR) were measured with a blood pressure analyzer (Digi-Med, Micro-Med, Louisville, Ky., United States of America) connected to the femoral artery cannula as described in Dewhirst et al., 1996.

[4] = tested on: mammary adenocarcinoma R3230AC tumors; experiment: Tumor pO2 during gas breathing; assay type: in vivo, rat
Method: (§1) Tumors were implanted in rats as described hereinabove, and the rats were set up to breathe either 100% O2, 100% O2 plus 100 parts per million ethyl nitrite (ENO), normal room air, or normal room air plus 100 ppm ENO. pO2 was monitored in the tumor or in quadriceps muscle from 30 minutes before the administration of the 100% O2/100% O2 plus 100 ppm ENO/room air/room air plus 100 ppm ENO, during 30 minutes of breathing of the gases, and for 30 minutes after the administered gas supply was removed.

[5] = tested on: quadriceps muscle; experiment: Quadriceps muscle pO2 during gas breathing; assay type: in vivo, rat
Method: as §1

[6] = tested on: tumor-feeding arterioles; experiment: Diameter of tumor-feeding arterioles in window chambers; assay type: in vivo, rat; parameters: key to TUMOR vascular diameter: 0, unchanged; ↓, decreased; ↑, increased; details: for TUMOR vascular diameter: IV
Description: For i.v. infusions, the femoral artery and vein were cannulated and drugs were infused through the venous cannula. For i.a. infusions, the femoral and left carotid arteries were cannulated and drugs were infused through the carotid cannula. For window chamber experiments, the two window frames were surgically positioned in the dorsal skin flap, followed by tumor cell transplantation to the chamber tissue, as described in Dewhirst et al., 1996. Following several days of tumor growth, direct visualization of tumor-feeding arterioles was performed using intravital microscopy. Tumor-feeding arterioles in window chambers were visualized using transillumination. Arteriolar diameters were measured from videotaped images using an image-shearing monitor (IPM Inc., San Diego, Calif., United States of America).

[7] = tested on: mammary adenocarcinoma R3230AC tumors; experiment: Tumor growth delay after radiation; assay type: in vivo, rat; details: 100 ppm ENO plus 100% O2; 2 Gy daily on days 0-4; versus 100% O2, room air, non-irradiated
Method: Tumors were implanted in rats as described hereinabove, and the tumors were irradiated daily with 2 Gy of irradiation on days 0-4. Relative tumor volumes were determined daily from day 0 to day 18 in rats that breathed room air (N=4), 100% O2 (N=4), or 100 ppm ENO plus 100% O2. As a control, relative tumor volumes for rats that breathed room air (N=3) and were not treated with radiation. were also determined.

[8] = Hb tetramer/dimer dissociation; assay type: physicochemical; details: assuming plasma concentration of about 6.5 μmol/L, room air
Description: Hb dissociation from tetramers to dimers depends on Hb concentration and oxygen tension, and NO release from dimers is unresponsive to allosteric effectors (e.g., O2). […] Is there enough tetrameric SNO-Hb to sense oxygen and regulate NO delivery? Evidently yes, as a finely tuned regulation of SNO-Hb bioactivity by oxygen tension (NO release depends on local pO2) that contrasted with the O2-independent behavior of oxy-Hb was observed. That the plasma half-life of SNO on Hb was more than doubled during hyperoxia while protein clearance remained unaffected was also observed.

[9] = cited from earlier work
[10] = tested on: baroreceptor and peripheral vasculature; experiment: Summary of bioactivity of cell-free SNO-Hb and oxy-Hb (Table 3); assay type: in vivo, rat
[11] = tested on: quadriceps muscle; experiment: Quadriceps muscle (systemic) perfusion by Laser Doppler flowmetry; assay type: in vivo, rat; parameters: key to SYSTEMIC perfusion: 0, unchanged; ↓, decreased; ↑, increased; details: for muscle blood flow (leg quadriceps): hyperoxia versus normoxia
[12] = 30 minutes breathing 100% O2 or 100% O2 plus 100 ppm ENO
[13] = 30 minutes breathing room air plus 100 ppm ENO
[14] = IV, Room air, change versus before treatment
[15] = i.v. infusion, normoxic animals
[16] = vascular pO2 at injection site low
[17] = i.a. and i.v. infusion, control experiments
[18] = vascular pO2 at injection site any

Molecule: O=O [100% O2]
- effects of hyperoxia alone on tumor and muscle perfusion ([1]; 100% O2 alone, before drug infusion): transient decrease that resumed within 5 minutes (i.e., before drug infusion) to no change
- Femoral artery HbO2 [2]: 98.2 ± 0.1 %
- Femoral artery pCO2 [2]: 56.9 ± 1.7 mm Hg
- Femoral artery pO2 [2]: 435.5 ± 34.7 mm Hg
- Femoral vein HbO2 [2]: 75.8 ± 3.4 %
- Femoral vein pCO2 [2]: 72.0 ± 2.1 mm Hg
- Femoral vein pO2 [2]: 69.8 ± 3.0 mm Hg
- Tumor artery HbO2 ([2]; window chamber): 89 ± 2 %
- Tumor vein HbO2 ([2]; window chamber): 78 ± 3 %
- change in HR ([3]; hyperoxia alone, N=19): −3%
- change in MAP ([3]; hyperoxia alone, N=19): +1%
- pO2 in tumors [4, 12]: insufficient to raise the pO2 to above 10 mm Hg
- pO2 in quadriceps muscle [5, 12]: increased rapidly
- diameter of tumor feeding arterioles ([6]; hyperoxia alone, t=-5 to t=0): no vascular effect

Molecule: CCON=O [ENO, ethyl nitrite]
- growth of irradiated tumors (relative tumor volume) [7]: grew more slowly
- pO2 in tumors [4, 12]: above 10 mm Hg
- pO2 in tumors [4, 13]: remained largely unchanged
- pO2 in quadriceps muscle [5, 12]: increased rapidly
- pO2 in quadriceps muscle [5, 13]: this effect was not seen

Molecule: S-nitrosohemoglobin [SNO-Hb]
- TUMOR perfusion ([1]; IA, 100% O2): 0
- TUMOR perfusion ([1]; IA, Room air): 0
- TUMOR perfusion ([1]; IV, 100% O2): 0
- TUMOR perfusion [1, 14]: ↓*
- pressor activity (tumor perfusion) ([1]; i.a. infusion, hyperoxic rats versus i.a. room air): not altered
- decrease in tumor perfusion ([1]; i.a. infusion, normoxic animals, compared to i.v.): not significantly different compared to i.v. infusion
- tumor perfusion, flank tumors ([1]; i.v. infusion, 100% O2 (hyperoxia) versus room air): hyperoxia abolished the reduction in tumor perfusion
- tumor perfusion, window chamber tumors ([1]; i.v. infusion, hyperoxic rats): this decrease was prevented
- tumor perfusion, window chamber tumors [1, 15]: potent decrease in tumor perfusion
- tumor blood flow (perfusion), flank tumors ([1]; i.v. infusion): reduced perfusion
- fraction present as tetramers [8]: about 35%
- KD (tetramer/dimer), R conformer ([9]; R conformer): 3000 nM
- KD (tetramer/dimer), T conformer ([9]; T conformer): 3 nM
- Baroreceptor effect ([10]; vascular pO2 at injection site high): inhibition
- Peripheral effect ([10]; vascular pO2 at injection site high, dose-dependent effect): vasodilation
- Baroreceptor effect [10, 16]: none
- Peripheral effect [10, 16]: vasoconstriction
- SYSTEMIC HR ([3]; IA, 100% O2): 0
- SYSTEMIC MAP ([3]; IA, 100% O2): ↑
- SYSTEMIC HR ([3]; IA, Room air): 0
- SYSTEMIC MAP ([3]; IA, Room air): ↑
- SYSTEMIC HR ([3]; IV, 100% O2): 0
- SYSTEMIC MAP ([3]; IV, 100% O2): ↑
- SYSTEMIC HR ([3]; IV, Room air): 0
- SYSTEMIC MAP ([3]; IV, Room air): 0
- HR ([3]; i.a. infusion, normoxic and hyperoxic): remained unchanged
- MAP ([3]; i.a. infusion, from 5 minutes (normoxic) and 10 minutes (hyperoxic)): significant increase in MAP
- HR ([3]; i.v. infusion, hyperoxia): no significant effect on HR
- MAP ([3]; i.v. infusion, hyperoxia, from 10 minutes after infusion): significant increase in the MAP
- HR [3, 15]: No change
- MAP [3, 15]: No change
- SYSTEMIC perfusion ([11]; IA, 100% O2): 0
- SYSTEMIC perfusion ([11]; IA, Room air): 0
- SYSTEMIC perfusion ([11]; IV, 100% O2): 0
- SYSTEMIC perfusion ([11]; IV, Room air): ↓
- muscle blood flow (quadriceps) ([11]; i.a. infusion, independently of O2 delivery): remained unaltered
- muscle blood flow (leg quadriceps) ([11]; i.v. infusion): prevented under hyperoxia
- muscle perfusion in the quadriceps ([11]; i.v. infusion, rats breathing room air (normoxia)): decreased muscle perfusion more than Hb; also recorded: decrease in muscle blood flow
- TUMOR vascular diameter ([6]; 100% O2): 0
- TUMOR vascular diameter ([6]; Room air): 0
- diameter of tumor feeding arterioles ([6]; i.v. infusion, normoxic or hyperoxic rats, window chamber): no significant change

Molecule: SNO-albumin: bovine serum albumin reacted with NaNO2 (S-nitrosylated albumin) [reference compound]
- tumor blood flow (perfusion), flank tumors ([1]; i.v. infusion): small increase in tumor perfusion

Molecule: albumin [reference compound]
- TUMOR perfusion [1, 17]: did not induce any significant or differential change
- HR [3, 17]: did not induce any significant or differential change
- MAP [3, 17]: did not induce any significant or differential change

Molecule: oxyhemoglobin [oxy-Hb, reference compound]
- TUMOR perfusion ([1]; IV, 100% O2): ↓
- TUMOR perfusion [1, 14]: ↓
- tumor blood flow (perfusion), flank tumors ([1]; i.v. infusion): rapid and sustained decrease in tumor blood flow
- Baroreceptor effect [10, 18]: none
- Peripheral effect [10, 18]: vasoconstriction
- SYSTEMIC MAP ([3]; IV, 100% O2): 0
- SYSTEMIC MAP ([3]; IV, Room air): 0
- MAP ([3]; i.v. infusion, normoxia or hyperoxia): no effect on MAP
- HR ([3]; i.v. infusion, from 5 minutes after infusion, more severe in hyperoxic than in normoxic rats): induced bradycardia
- SYSTEMIC perfusion ([11]; IV, 100% O2): ↓
- SYSTEMIC perfusion ([11]; IV, Room air): ↓
- muscle blood flow (leg quadriceps) ([11]; i.v. infusion): hyperoxia did not modify the effect of oxy-Hb in muscles
